This is an account of results in US5114958A, “1,2,4-oxadiazole and 1,2,4-thiadiazole derivatives of fenamates as antiinflammatory agents” (Warner-Lambert Company, priority 1991, dated 1992).

SMILES strings stand for the structures. Read-outs that look alike come from different tables or passages of the source.

For orientation: IC50 means the concentration that gives 50% inhibition. Read a low IC50 as inhibition by little substance. By inhibition is commonly meant the relative decrease from the control value, in per cent.

In assay [1] the target is T1, 5-lipoxygenase (Rattus norvegicus, UniProt P12527).
T1 construct: host or cells: RBL-1
T1 sequence (P12527 1-673): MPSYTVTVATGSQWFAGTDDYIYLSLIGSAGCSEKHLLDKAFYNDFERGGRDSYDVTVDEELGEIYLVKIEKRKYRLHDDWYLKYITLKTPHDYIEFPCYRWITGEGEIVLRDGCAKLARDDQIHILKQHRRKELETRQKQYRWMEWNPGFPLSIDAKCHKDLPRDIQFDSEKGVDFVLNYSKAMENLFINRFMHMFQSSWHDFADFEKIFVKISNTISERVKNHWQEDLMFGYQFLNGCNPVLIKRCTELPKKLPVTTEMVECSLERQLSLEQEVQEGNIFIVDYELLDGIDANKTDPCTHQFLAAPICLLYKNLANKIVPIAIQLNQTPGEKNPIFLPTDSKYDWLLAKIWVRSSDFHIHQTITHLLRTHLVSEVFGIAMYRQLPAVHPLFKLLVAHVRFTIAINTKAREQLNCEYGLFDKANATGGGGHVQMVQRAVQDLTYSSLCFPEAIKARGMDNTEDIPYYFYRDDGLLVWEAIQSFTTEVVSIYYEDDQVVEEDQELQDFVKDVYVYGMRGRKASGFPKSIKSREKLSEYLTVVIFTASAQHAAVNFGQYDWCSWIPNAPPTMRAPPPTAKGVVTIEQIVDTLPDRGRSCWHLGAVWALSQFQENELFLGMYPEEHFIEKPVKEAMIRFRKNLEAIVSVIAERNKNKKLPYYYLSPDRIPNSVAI
The assay is described as follows: ARBL whole cell 5-lipoxygenase assay (LTB4 formation in RBL-1 cells, A23187-stimulated). The assay is classed as cell-based. The following applies: RBL-1 whole cells; for IC50: inhibition of LTB4 formation. The protocol: (§1) ARBL/ARBC Whole cell 5-lipoxygenase and Cyclooxygenase Aasays
(§2) The rat basophilic leukemia cell line (RBL-1) was obtained from the American Type Culture Collection (Rockville, Md.).
(§3) Radioimmunoassay (RIA) kits of LTB4 and PGF2α were obtained from Amersham (Arlington Heights, Ill.) and Seragen (Boston, Mass.), respectively.
(§4) RBL-1 cells are grown in suspension culture in Eagle's minimum essential medium supplemented with 12% fetal bovine serum at 37° C. in an incubator supplied with air-5% carbon dioxide. Cells are harvested by centrifugation. They are washed with cold phosphate buffered saline pH 7.4 (PBS; NaCl, 7.1 g; Na2 HPO4, 1.15 g; KH2 PO4, 0.2 g; and KCl, 0.2 g/L). Cells are finally suspended in PBS containing 1.0 mM calcium at a density of 2×10^6 cells/mL. Cells are incubated with and without test agent (in DMSO) (1% DMSO is without effect on arachidonic acid metabolism) for 10 minutes at room temperature. Calcium ionophore A23187 (5 μM) is added and cells are incubated for 7 minutes at 37° C. The reaction is stopped by chilling the tubes on ice for 10 minutes. Cells are separated by centrifugation and the supernatant is stored at -20° C. Aliquots (100 μL) are analyzed for LTB4 and PGF2α using radioimmunoassay kits as provided by the supplier.
(§5) Table 1 contains biochemical data obtained from this whole cell assay as IC5 s which are calculated as the amount of test compound causing 50% inhibition of LTB4 or PGF2α formation and the results of the CFE-2 assay.

Assay [2] addresses T2, Cyclooxygenase (Rattus norvegicus, UniProt Q63921).
T2 construct: host or cells: RBL-1
T2 sequence (Q63921 27-602): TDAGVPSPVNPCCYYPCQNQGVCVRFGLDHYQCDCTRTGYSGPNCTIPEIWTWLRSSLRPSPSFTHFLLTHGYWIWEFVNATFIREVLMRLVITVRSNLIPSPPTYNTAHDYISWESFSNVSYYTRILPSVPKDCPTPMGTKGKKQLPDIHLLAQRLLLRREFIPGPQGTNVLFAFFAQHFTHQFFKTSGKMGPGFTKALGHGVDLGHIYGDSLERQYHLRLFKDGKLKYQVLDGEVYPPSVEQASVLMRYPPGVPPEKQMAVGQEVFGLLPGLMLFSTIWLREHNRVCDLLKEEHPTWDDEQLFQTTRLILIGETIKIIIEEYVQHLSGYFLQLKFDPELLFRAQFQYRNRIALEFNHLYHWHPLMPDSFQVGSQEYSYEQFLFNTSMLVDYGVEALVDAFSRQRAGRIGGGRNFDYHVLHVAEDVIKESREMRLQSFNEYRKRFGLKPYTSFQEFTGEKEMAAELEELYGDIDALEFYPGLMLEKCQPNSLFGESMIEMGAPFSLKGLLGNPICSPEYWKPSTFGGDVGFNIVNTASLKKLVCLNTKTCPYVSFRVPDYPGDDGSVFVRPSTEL
Put plainly: ARBC whole cell cyclooxygenase assay (PGF2α formation in RBL-1 cells, A23187-stimulated). The assay is classed as cell-based. As to conditions: RBL-1 whole cells; for IC50: inhibition of PGF2α formation; for inhibition at 10 µM: read-out: ARBC % inhibition of PGF2α at 10 μM (class symbol). The method, then: as §1, §2, §3, §4, §5

Assay [3] is described as follows: Carrageenan-Induced Rat Foot Paw Edema-2 (CFE-2) Assay. The assay is classed as in vivo. The following applies: dosed 1 hour before carrageenan, edema measured 5 hours after carrageenan. The method, then: Carrageenan-Induced Rat Foot Paw Edema-2 (CFE-2) Assay:Protocol
Carrageenan solution (1% w/v) is prepared by dissolving 100 mg carrageenan (Marine Colloidal Div., Springfield, N.J.) in 10 mL of sterile saline (0.9%) solution (Travenol). The solution is vortexed for 30 to 45 minutes. Animals are dosed with compound 1 hour before carrageenan challenge. Foot paw edema is induced by injecting 0.10 mL of the 1% carrageenan subcutaneously into the plantar portion of the right hind paw of each rat under light anesthesia. Initial foot paw volume is measured immediately following carrageenan challenge using mercury plethysmography (Buxco Electronics). Edema is measured 5 hours after carrageenan. The difference between the 5-hour and the initial paw volume is expressed as delta edema. The delta edema for each test group of animals is used to calculate the percent inhibition of edema achieved by the compound at the test dose compared with the vehicle control group. The ID40 (the dose at which swelling is inhibited by 40%) is calculated by probit analysis for the dose at which 40% inhibition occurs.
as §5
For orientation: In the carrageenan paw model, swelling and tenderness develop within hours.

Regarding `Cc1ccc(Cl)c(Nc2ccccc2-c2noc(=O)[nH]2)c1Cl` [Example 1, 3-[2-[(2,6-dichloro-3-methylphenyl)amino]phenyl]-1,2,4-oxadiazol-5(4H)-one], the IC50 in assay [1] is 2300 nM; in assay [2], 13 nM. The “CFE Percent inhibition at 30 mg/kg” value in assay [3] was 58%.
Regarding `Cc1ccc(S(=O)(=O)c2nc(-c3ccccc3Nc3c(Cl)ccc(C)c3Cl)ns2)cc1` [Example 2, 2,6-Dichloro-3-methyl-N-[2-[5-[(4-methylphenyl)-sulfonyl]-1,2,4-thiadiazol-3-yl]phenyl]benzenamine], the inhibition at 10 µM in assay [1] (read-out: ARBL % inhibition of LTB4 at 10 μM (class symbol)) and in assay [2] was under 40% in each case.
For `Cc1ccc(Cl)c(Nc2ccccc2-c2nsc(N=C(N)N)n2)c1Cl` [Example 3, 3-[2-[(2,6-dichloro-3-methylphenyl)amino]phenyl]-1,2,4-thiadiazol-5-yl-guanidine], the inhibition at 10 µM in assay [1] (read-out: ARBL % inhibition of LTB4 at 10 μM) is 100%; in assay [2], under 40%.
As to `Cc1ccc(Cl)c(Nc2ccccc2-c2nsc(NC#N)n2)c1Cl` [Example 4, 3-[2-[(2,6-Dichloro-3-methylphenyl)amino]phenyl]-1,2,4-thiadiazol-5-yl-cyanamide], the IC50 came to 6150 nM in assay [1] and 1230 nM in assay [2].
